# In the supplement of paper PMC10307832:
# How the values were obtained:
# Assay in all cases: relative viability (nuclei count vs DMSO), 5 days (fraction); higher = more cells survive
# [1] = compound: C1CSC2=C(C(=O)N1)SC3=C2C=C(C=C3)O [kb NB 142-70] + Nc1ncn([C@H]2C[C@H](O)[C@@H](CO)O2)c(=O)n1 [Decitabine] (partner 2 µM)
# Summary of the method: (§1)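 Relative viability is defined as nuclei in treated wells over nuclei in vehicle wells. Duplicate plates were run and medians reported. Lung cancer cell lines in 1536-well plates were dosed by pin tool one day after seeding, with one drug or with a fixed anchor-drug dose plus five library-drug doses (not always all listed) in √10 steps, and nuclei were counted after 5 days.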
# [2] = compound: C1CSC2=C(C(=O)N1)SC3=C2C=C(C=C3)O [kb NB 142-70] + CC(=O)Nc1cccc(-n2c(=O)n(C3CC3)c(=O)c3c(Nc4ccc(I)cc4F)n(C)c(=O)c(C)c32)c1 [Trametinib] (partner 0.02 µM)
# Summary of the method: as §1
# [3] = compound: NCC(=O)Nc1ccc(-n2nc(C(F)(F)F)cc2-c2ccc3c(ccc4ccccc43)c2)cc1 + CC1(C)CCC(c2ccc(Cl)cc2)=C(CN2CCN(c3ccc(C(=O)NS(=O)(=O)c4ccc(N[C@H](CCN5CCOCC5)CSc5ccccc5)c(S(=O)(=O)C(F)(F)F)c4)cc3)CC2)C1 [Navitoclax] (partner 0.5 µM)
# Summary of the method: as §1
# [4] = compound: C1CSC2=C(C(=O)N1)SC3=C2C=C(C=C3)O [kb NB 142-70] + CS(=O)(=O)N1CCN(Cc2cc3nc(-c4cccc5[nH]ncc45)nc(N4CCOCC4)c3s2)CC1 [Pictilisib] (partner 1 µM)
# Summary of the method: as §1
# [5] = compound: NCC(=O)Nc1ccc(-n2nc(C(F)(F)F)cc2-c2ccc3c(ccc4ccccc43)c2)cc1 + Cc1nc(Nc2ncc(C(=O)Nc3c(C)cccc3Cl)s2)cc(N2CCN(CCO)CC2)n1 [Dasatinib] (partner 0.075 µM)
# Summary of the method: as §1
Cell Line,relative viability ([1]; first compound 0.1 µM),relative viability ([1]; first compound 1 µM),relative viability ([1]; first compound 3.162 µM),relative viability ([2]; first compound 0.1 µM),relative viability ([2]; first compound 1 µM),relative viability ([2]; first compound 3.162 µM),relative viability ([3]; first compound 0.02 µM),relative viability ([3]; first compound 0.06325 µM),relative viability ([3]; first compound 0.2 µM),relative viability ([3]; first compound 0.6325 µM),relative viability ([3]; first compound 2 µM),relative viability ([4]; first compound 0.1 µM),relative viability ([4]; first compound 1 µM),relative viability ([4]; first compound 3.162 µM),relative viability ([5]; first compound 0.02 µM),relative viability ([5]; first compound 0.06325 µM),relative viability ([5]; first compound 0.2 µM),relative viability ([5]; first compound 0.6325 µM),relative viability ([5]; first compound 2 µM)
NCI-H1651,0.61,0.607,0.491,0.786,0.858,0.834,1.06,1.11,1.13,0.998,1.01,0.563,0.497,0.344,0.319,0.447,0.346,0.494,0.462
NCI-H441,0.259,0.213,0.162,0.473,0.383,0.287,0.521,0.577,0.654,0.627,0.539,0.497,0.429,0.305,0.444,0.665,0.729,0.548,0.681
LCLC-97TM1,0.268,0.205,0.135,0.197,0.183,0.174,0.321,0.422,–,0.359,0.393,0.216,0.232,0.236,0.901,0.809,0.797,0.827,0.752
NCI-H727,0.915,0.868,0.768,0.419,0.367,0.316,0.464,0.568,0.52,0.474,0.469,0.425,0.469,0.346,0.375,0.365,0.347,0.467,0.345
NCI-H1355,0.39,0.355,0.342,0.384,0.387,0.447,0.921,0.895,1,0.999,0.978,0.491,0.428,0.425,0.664,0.813,0.723,0.754,0.756
HOP-62,0.217,0.203,0.226,0.401,0.427,0.545,1.06,1.01,0.996,0.91,1.08,0.736,0.606,0.73,0.725,0.629,0.699,0.652,0.679
NCI-H2085,0.55,0.522,0.448,0.515,0.542,0.325,1.06,1.16,1.28,1.17,1.08,0.486,0.53,0.398,0.291,0.282,0.292,0.263,0.341
